In patent US20240317816A1, “PEPTIDES FOR IMMUNOTHERAPY” (Genevive, Inc., priority 2021, published 2024):

Legend:
[1] = system: moDCs and allogeneic T cells; experiment: Mixed lymphocyte reaction (MLR) cytokine release; format: cell-based
Protocol: Twenty-four hours later, T cells isolated from allogeneic donors were added to the moDCs with the peptide of interest, SG-3-00802 or SG-3-05021, alone or in combination with anti-PD-L1 monoclonal antibody. The co-culture of cells was incubated for 72 hours, after which cell supernatants were harvested and analyzed for secretion of cytokines, IFN-g and TNF-α. […] Data shown for experiment conducted in >4 Donor PBMCs.

RENCA tumor model = experiment: CXCL10 and CD8a levels in RENCA tumor bearing mice; format: in vivo, Balb/c mice; settings: 2.5 mg/kg BID peritumorally for 7d
Protocol: Several mechanism of action related endpoints were also measured in vivo. Balb/c mice were implanted with RENCA cells and treated with candidate lead peptides and control compounds. Dosing occurred during the 1st week only: SG-3-00802 was dosed peritumorally at 2.5 mg/kg BID for 7d, anti-PD-1 was dosed i.p. at 10 mg/kg TIW for a total of 3 doses.

RENCA cells = experiment: RENCA re-challenge study; format: in vivo, Balb/c mice
Protocol: Additional studies were performed to test survival and tumor volume responses to a re-challenge event. In one study, mice were allocated into dosing groups when tumors reached ˜100 mm^3. During the initial dosing study, time 0 was the first day of seven days of dosing. […] Re-implantation was completed on day 39 after dosing completion. Treated mice were tumor free for >20 days before being re-challenge. […] Tumor volume and survival was monitored as previously described. In the re-challenge experiment, time 0 is day 10 after re-challenge dosing.

CXCR3 = target: T1, CXCR3 (Homo sapiens, UniProt P49682); experiment: Positive allosteric modulator assay method 2 (PAM2), CXCR3-bla U2OS; format: cell-based; parameters: TEV protease site; Gal4-VP16 transcription factor ('Ga14-VP16' [sic]); Tango cell line; host or cells: Tango GPCR-bla U2OS; settings: varying CXCL11, fixed peptide concentration
T1 sequence (P49682 1-368): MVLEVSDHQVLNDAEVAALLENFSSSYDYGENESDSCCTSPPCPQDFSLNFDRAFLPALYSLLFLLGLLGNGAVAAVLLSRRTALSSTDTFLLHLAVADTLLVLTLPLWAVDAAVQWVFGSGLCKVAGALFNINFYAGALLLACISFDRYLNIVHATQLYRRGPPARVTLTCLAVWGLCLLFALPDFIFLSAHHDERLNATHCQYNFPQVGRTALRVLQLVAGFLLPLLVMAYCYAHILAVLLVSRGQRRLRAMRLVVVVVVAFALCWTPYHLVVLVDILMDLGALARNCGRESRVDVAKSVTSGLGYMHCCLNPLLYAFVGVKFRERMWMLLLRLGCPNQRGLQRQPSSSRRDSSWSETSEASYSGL
From the text: Tango™ CXCR3-bla U2OS cells contain the human chemokine (C-X-C motif) receptor 3 linked to a TEV protease site and a Ga14-VP16 transcription factor stably integrated into the Tango™ GPCR-bla U2OS cell line. This parental cell line stably expresses a beta-arrestin/TEV protease fusion protein and the beta-lactamase reporter gene under the control of a UAS response element. The Tango™ CXCR3-bla U2OS cells have been functionally validated for a response to I-TAC (CXCL11).
Positive allosteric modulation was confirmed with an additional test method using a dose response setting for CXCL11. In positive allosteric modulator assay method 2 (PAM2), cells were diluted in Assay Media to an appropriate cell density, and were added to the assay plate. CXCR3-bla U2OS were stimulated with varying concentrations of CXCL11 ligand and a pre-determined fixed concentration of either SG-3-00802 or SG-3-06683 and incubated for 30 minutes. Ligand (CXCL9, CXCL10, or CXCL11) was added at increasing concentrations to wells containing the test compound.

CCR9 = target: T2, CCR9 (Homo sapiens, UniProt P51686); experiment: gpcrMAX PathHunter β-Arrestin Assay; format: cell-based
T2 construct: expressed in transfected cells
T2 sequence (P51686 1-369): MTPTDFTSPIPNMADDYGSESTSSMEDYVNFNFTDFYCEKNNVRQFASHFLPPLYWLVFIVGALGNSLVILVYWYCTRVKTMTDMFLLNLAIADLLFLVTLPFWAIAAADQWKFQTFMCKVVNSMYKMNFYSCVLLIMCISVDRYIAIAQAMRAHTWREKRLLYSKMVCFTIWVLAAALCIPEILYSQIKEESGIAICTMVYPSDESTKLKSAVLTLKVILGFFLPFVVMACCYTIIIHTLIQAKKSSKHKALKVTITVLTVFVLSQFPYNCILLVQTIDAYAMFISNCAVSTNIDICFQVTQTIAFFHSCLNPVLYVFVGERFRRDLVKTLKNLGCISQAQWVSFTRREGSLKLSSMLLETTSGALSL
From the text: The PathHunter® β-Arrestin Assay monitored activation of a panel of 168 G-protein coupled receptors (GPCRs) with […] activation of the GPCR in agonist and antagonist mode.
where the test sample is the peptide, the vehicle control is DMSO (0% activity), and the control ligand is control compound (100% activity).
Peptides SG-3-00802 and SG-3-05021 were identified as an agonist, an antagonist, a PAM (Positive Allosteric Modulator), or an inverse-agonist. Agonist, antagonist, PAM, and inverse-agonist were identified according to the guidelines in Table 8. The basal activity/noise is a % activity of −20% to 20% for both agonist and antagonist modes. A PAM (Positive Allosteric Modulator) binds to a receptor, at a different site than the agonist, to change the receptor's response to the agonist. An inverse-Agonist is a binding partner with agonistic shutting down of basal activity in the cell. An antagonist antagonizes the activity of a particular binding partner.

Sequence | IFN-γ secretion ([1]; after stimulation with anti-CD40, in combination with anti-PD-L1, 72 hours) | IFN-γ secretion ([1]; after stimulation with anti-CD40, peptide alone, 72 hours) | CD8a expression in the tumor (RENCA tumor model) | expression of CXCL10 in the tumor (RENCA tumor model) | serum levels of CXCL10 (RENCA tumor model) | rejection of newly implanted tumors (RENCA cells; peptide alone) | percent of mice surviving after re-challenge (RENCA cells; previously dosed in combination with anti-PD-1) | percent of mice surviving after re-challenge (RENCA cells; previously dosed with peptide alone) | # of animals without tumor progression out of re-challenged animals per group (re-challenge study) (RENCA cells; re-challenge study) | rejection of newly implanted tumors (RENCA cells; with anti-PD-1 antibody combinatorial treatment) | activity of CXCL11 on the CXCR3 receptor (PAM2) (CXCR3) | % Agonist Activity (CCR9) [%] | % Antagonist Activity (CCR9) [%]
LGKTDWIEKYFKVKKEKIDKMQRFLQG (peptide for immunotherapy; SG-3-05021) | increase in IFN-γ | increase in IFN-γ | – | – | – | – | – | – | – | – | – | – | –
MKVRPSVKPMCEKCKIIRRKGRVMVICENPKHKQRQG [SG-3-00802] | – | – | increase in CD8a expression | increased expression of CXCL10 in the tumor | increased serum levels of CXCL10 | rejected newly implanted tumors | increased percent of mice surviving | increased percent of mice surviving | 2/2 | rejected newly implanted tumors | enhanced the activity of the endogenous ligand CXCL11 | 2 | −48
